Measurements as given in ChEMBL document CHEMBL1201862, “PubChem BioAssay data set” (2004).
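Results reflect a 48-hour exposure of cells in 96-well plates to compound at five concentrations. Here, GI50 denotes the concentration required for 50% inhibition of growth.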 Calls of active or inactive are those of the source. Cut-off read from the data, not from the text of the source: active = GI50 up to about 1.1 µM and inactive = higher.

How the values were obtained:
Assay in all cases: NCI-60 cell line screen, 48 h
[1] = test system: A549
[2] = test system: BT-549
[3] = test system: EKVX
[4] = test system: HCT-116
[5] = test system: HOP-92
[6] = test system: Hs-578T
[7] = test system: MCF7
[8] = test system: MDA-N
[9] = test system: Malme-3M
[10] = test system: NCI-H23
[11] = test system: NCI-H460
[12] = test system: OVCAR-3
[13] = test system: OVCAR-4
[14] = test system: PC-3
[15] = test system: RXF 393
[16] = test system: SK-MEL-28
[17] = test system: SK-MEL-2
[18] = test system: SW-620
[19] = test system: T47D
[20] = test system: U-251

Row | Structure (SMILES) | GI50 [1] | GI50 [2] | GI50 [3] | GI50 [4] | GI50 [5] | GI50 [6] | GI50 [7] | GI50 [8] | GI50 [9] | GI50 [10] | GI50 [11] | GI50 [12] | GI50 [13] | GI50 [14] | GI50 [15] | GI50 [16] | GI50 [17] | GI50 [18] | GI50 [19] | GI50 [20]
1 | CCCC(=O)OC[n+]1cccc(-c2c(COC(=O)NC(C)C)c(COC(=O)NC(C)C)c3n2CCC3)c1 | 89.5 µM (inactive) | > 79.6 µM (inactive) | > 100 µM (inactive) | 19.7 µM (inactive) | 32.4 µM (inactive) | > 100 µM (inactive) | 40 µM (inactive) | > 100 µM (inactive) | 66.5 µM (inactive) | 34.8 µM (inactive) | 29.6 µM (inactive) | > 77.8 µM (inactive) | 58.6 µM (inactive) | > 86.7 µM (inactive) | 23.1 µM (inactive) | > 100 µM (inactive) | > 82.6 µM (inactive) | 48.2 µM (inactive) | > 91.8 µM (inactive) | > 60.7 µM (inactive)
2 | COc1cc(CNc2nc3ccccc3nc2-c2cccs2)cc(OC)c1OC | 18.7 µM (inactive) | 3.1 µM (inactive) | 29.6 µM (inactive) | 22.9 µM (inactive) | 1.26 µM (inactive) | 12.6 µM (inactive) | 21.7 µM (inactive) | 16.3 µM (inactive) | 17.9 µM (inactive) | 14.5 µM (inactive) | 10.5 µM (inactive) | 22.6 µM (inactive) | 2.84 µM (inactive) | 11.6 µM (inactive) | 14 µM (inactive) | 32.3 µM (inactive) | – | 36.7 µM (inactive) | 7.48 µM (inactive) | 27.6 µM (inactive)
3 | CC1=C(C)C(=O)C(C2=CC(=O)C=CC2=O)=C(C2=CC(=O)C=CC2=O)C1=O | 98.9 µM (inactive) | 86.9 µM (inactive) | > 54.1 µM (inactive) | 31.8 µM (inactive) | 36.4 µM (inactive) | 45.4 µM (inactive) | 26.4 µM (inactive) | 26.9 µM (inactive) | 66.1 µM (inactive) | > 100 µM (inactive) | > 100 µM (inactive) | – | 20.6 µM (inactive) | 62.8 µM (inactive) | 41.9 µM (inactive) | > 74 µM (inactive) | > 100 µM (inactive) | 28.4 µM (inactive) | 26.4 µM (inactive) | 32.7 µM (inactive)
4 | O=c1cccc2n1CC1CNC[C@H]2C1 [CYTISINICLINE] | > 100 µM (inactive) | > 100 µM (inactive) | > 100 µM (inactive) | > 100 µM (inactive) | > 100 µM (inactive) | > 100 µM (inactive) | > 100 µM (inactive) | > 100 µM (inactive) | > 100 µM (inactive) | > 100 µM (inactive) | > 100 µM (inactive) | > 100 µM (inactive) | > 100 µM (inactive) | > 100 µM (inactive) | > 100 µM (inactive) | > 100 µM (inactive) | > 100 µM (inactive) | > 100 µM (inactive) | > 100 µM (inactive) | > 100 µM (inactive)
5 | O=[N+]([O-])c1cccc2nnccc12 | 54.8 µM (inactive) | 29.6 µM (inactive) | 36.5 µM (inactive) | 12.1 µM (inactive) | 24.2 µM (inactive) | 51.5 µM (inactive) | 21.1 µM (inactive) | 17.6 µM (inactive) | 11.9 µM (inactive) | 23.3 µM (inactive) | 19.1 µM (inactive) | – | – | 31.8 µM (inactive) | 63.5 µM (inactive) | – | 24.7 µM (inactive) | 42 µM (inactive) | 36.8 µM (inactive) | 41.6 µM (inactive)
6 | COc1cc(/C=N/c2ccc(S(N)(=O)=O)cc2)cc(OC)c1 | > 50 µM (inactive) | > 50 µM (inactive) | > 50 µM (inactive) | 19.8 µM (inactive) | > 50 µM (inactive) | > 50 µM (inactive) | 22.3 µM (inactive) | 26.5 µM (inactive) | > 50 µM (inactive) | > 50 µM (inactive) | > 50 µM (inactive) | > 50 µM (inactive) | > 50 µM (inactive) | > 50 µM (inactive) | > 50 µM (inactive) | > 50 µM (inactive) | > 50 µM (inactive) | – | > 50 µM (inactive) | > 50 µM (inactive)
7 | O=C(C/C(=N/O)c1cc(-c2ccccc2)no1)c1ccccc1 | 58.6 µM (inactive) | 28.7 µM (inactive) | 33.8 µM (inactive) | 20.4 µM (inactive) | 22.2 µM (inactive) | 26.2 µM (inactive) | 44.5 µM (inactive) | > 100 µM (inactive) | 41.4 µM (inactive) | 20.9 µM (inactive) | 39.6 µM (inactive) | 23.2 µM (inactive) | 26.5 µM (inactive) | 77.6 µM (inactive) | 19.8 µM (inactive) | > 100 µM (inactive) | 26.1 µM (inactive) | – | 35.8 µM (inactive) | 28.6 µM (inactive)
8 | C/C=C/C=C\C1OC(O)([C@H](CC)C(=O)NC/C=C/C=C(\C)[C@H](OC)C(C)C2OC(\C=C/C=C/C=C(\C)C(=O)c3c(O)ccn(C)c3=O)[C@H](O)[C@@H]2O)C(O)C(O)C1(C)C (stereo not given in full) | > 100 µM (inactive) | > 100 µM (inactive) | > 100 µM (inactive) | > 100 µM (inactive) | > 100 µM (inactive) | > 100 µM (inactive) | > 100 µM (inactive) | > 100 µM (inactive) | – | > 100 µM (inactive) | > 100 µM (inactive) | > 100 µM (inactive) | > 100 µM (inactive) | 64.3 µM (inactive) | > 100 µM (inactive) | > 100 µM (inactive) | > 100 µM (inactive) | > 100 µM (inactive) | 40.2 µM (inactive) | > 100 µM (inactive)
9 | CCCCc1c(OC)cc(O)c2c1C(=O)c1[nH]c(C(=O)O)c(O)c(=O)c1C2=O | 77.1 µM (inactive) | 4.47 µM (inactive) | 2.34 µM (inactive) | 3.37 µM (inactive) | 3.19 µM (inactive) | 1.82 µM (inactive) | 21.1 µM (inactive) | 17.2 µM (inactive) | – | 2.81 µM (inactive) | 46.8 µM (inactive) | 0.908 µM (active) | 18.3 µM (inactive) | 6.12 µM (inactive) | 1.56 µM (inactive) | 4.11 µM (inactive) | 1.69 µM (inactive) | 83 µM (inactive) | 9.4 µM (inactive) | 2.95 µM (inactive)
10 | COc1ccc(C(=O)/C=C/c2ccc(OCC#N)cc2)cc1OC | 29.1 µM (inactive) | 15.5 µM (inactive) | 14.9 µM (inactive) | 5.09 µM (inactive) | 22.6 µM (inactive) | 27.4 µM (inactive) | 3.15 µM (inactive) | > 10 µM (inactive) | 20.9 µM (inactive) | 21.9 µM (inactive) | 27.7 µM (inactive) | 21.2 µM (inactive) | 40.7 µM (inactive) | > 10 µM (inactive) | 13.2 µM (inactive) | 14.6 µM (inactive) | – | 7.16 µM (inactive) | 5.79 µM (inactive) | 14.3 µM (inactive)
11 | O=C1NC(=O)C(C(c2ccc([N+](=O)[O-])cc2)C2C(=O)NC(=O)NC2=O)C(=O)N1 | > 100 µM (inactive) | > 100 µM (inactive) | – | > 100 µM (inactive) | > 100 µM (inactive) | > 100 µM (inactive) | > 100 µM (inactive) | > 100 µM (inactive) | 55.8 µM (inactive) | > 100 µM (inactive) | > 100 µM (inactive) | > 100 µM (inactive) | > 100 µM (inactive) | > 100 µM (inactive) | > 100 µM (inactive) | > 100 µM (inactive) | > 100 µM (inactive) | > 100 µM (inactive) | > 100 µM (inactive) | > 100 µM (inactive)
12 | CC1(C)[C@H]2CC[C@](C)(C2)[C@]1(S)Cc1ccccn1 | 42.7 µM (inactive) | 90.4 µM (inactive) | 46.5 µM (inactive) | 32.8 µM (inactive) | 34.5 µM (inactive) | 57.8 µM (inactive) | 32.5 µM (inactive) | 39.3 µM (inactive) | 46.1 µM (inactive) | 44.6 µM (inactive) | 27.2 µM (inactive) | 21.7 µM (inactive) | – | 21.7 µM (inactive) | 26.7 µM (inactive) | > 100 µM (inactive) | 20.8 µM (inactive) | 36.3 µM (inactive) | 24.5 µM (inactive) | 14.4 µM (inactive)
13 | Nc1ccc(C2SCC(=O)N2NS(=O)(=O)c2cccc(C(=O)O)c2)cc1 (stereo not given) | > 100 µM (inactive) | > 100 µM (inactive) | > 100 µM (inactive) | > 100 µM (inactive) | > 100 µM (inactive) | > 100 µM (inactive) | > 100 µM (inactive) | > 100 µM (inactive) | 18.1 µM (inactive) | > 100 µM (inactive) | > 100 µM (inactive) | > 100 µM (inactive) | – | > 100 µM (inactive) | > 100 µM (inactive) | > 100 µM (inactive) | > 100 µM (inactive) | > 100 µM (inactive) | 58.3 µM (inactive) | > 100 µM (inactive)
14 | CCN(CC)c1ccc2cc(C(=O)Nc3cccc4ccccc34)c(=N)oc2c1 | 75.9 µM (inactive) | 24 µM (inactive) | > 100 µM (inactive) | > 100 µM (inactive) | > 100 µM (inactive) | 82 µM (inactive) | > 100 µM (inactive) | > 100 µM (inactive) | 30.5 µM (inactive) | – | 89.5 µM (inactive) | – | > 100 µM (inactive) | > 100 µM (inactive) | 61 µM (inactive) | 58.5 µM (inactive) | > 100 µM (inactive) | 67 µM (inactive) | > 100 µM (inactive) | 48.4 µM (inactive)
